From US11447493B2 (Kinnate Biopharma Inc., priority 2018, dated 2022)

Assays:
Assay in all cases: Radiometric protein kinase assay (33PanQinase), Assay Condition A (thiol containing)
Format in all cases: biochemical
CDK2/CycA2 = CDK2/CycA2 (Homo sapiens (Human), UniProt P24941); settings: thiol containing (1.2 mM DTT), ATP 0.3 μM
Procedure: (§1) The IC50 profile of test compounds was determined using three protein kinases.
(§2) The compounds were provided as pre-weighed powders in vials. The compounds were dissolved to 1×10^−02M by adding DMSO. 100 μl of each of the resulting stock solutions were transferred into column 2 of four 96 well “master plates”.
(§3) Prior to testing, the 1×10^−02M stock solutions in column 2 of the master plates were subjected to a serial, semi-logarithmic dilution using 100% DMSO as a solvent. […] Column 1 and 7 were filled with 100% DMSO as controls. Subsequently, 2×10 μl from each well of the serial diluted copy plates were aliquoted with a 96 channel pipettor into two identical sets of “compound dilution plates”.
(§4) In the process, 90 μl H2O were added to each well of a set of compound dilution plates. To minimize potential precipitation, the H2O was added to each plate only a few minutes before the transfer of the compound solutions into the assay plates. Each plate was shaken thoroughly, resulting in a “compound dilution plate/10% DMSO”.
(§5) For the assays, 5 μl solution from each well of the compound dilution plates/10% DMSO were transferred into the assay plates. The final volume of the assay was 50 μl. All compounds were tested at 10 final assay concentrations in the range from 1×10^−04M to 3×10^−09M, in singlicate. The final DMSO concentration in the reaction cocktails was 1% in all cases.
(§6) All protein kinases were expressed in Sf9 insect cells or in E. coli as recombinant GST-fusion proteins or His-tagged proteins, either as full-length or enzymatically active fragments. All kinases were produced from human cDNAs and purified by either GSH-affinity chromatography or immobilized metal. Affinity tags were removed from a number of kinases during purification. The purity of the protein kinases was examined by SDS-PAGE/Coomassie staining, the identity was checked by mass spectroscopy.
(§7) A radiometric protein kinase assay (^33PanQinase® Activity Assay) was used for measuring the kinase activity of the three protein kinases. All kinase assays were performed in 96-well FlashPlates™ from PerkinElmer (Boston, Mass., USA) in a 50 μl reaction volume. The reaction cocktail was pipetted in four steps in the following order: • 20 μl of assay buffer (standard buffer) • 5 μl of ATP solution (in H2O) • 5 μl of test compound (in 10% DMSO) • 20 μl enzyme/substrate mix
(§8) The reaction cocktails were incubated at 30° C. for 60 minutes. The reaction was stopped with 50 μl of 2% (v/v) H3PO4, plates were aspirated and washed two times with 200 μl 0.9% (w/v) NaCl. Incorporation of ^33Pi was determined with a microplate scintillation counter (Microbeta, Wallac). All assays were performed with a BeckmanCoulter/SAGIAN™ Core System.
(§9) The median value of the counts in column 1 (n=8) of each assay plate was defined as “low control”. This value reflects unspecific binding of radioactivity to the plate in the absence of a protein kinase but in the presence of the substrate. The median value of the counts in column 7 of each assay plate (n=8) was taken as the “high control”, i.e. full activity in the absence of any inhibitor. The difference between high and low control was taken as 100% activity.
(§10) As part of the data evaluation the low control value from a particular plate was subtracted from the high control value as well as from all 80 “compound values” of the corresponding plate. The residual activity (in %) for each well of a particular plate was calculated by using the following formula: Res. Activity (%)=100×[(cpm of compound−low control)/(high control−low control)]
(§11) The residual activities for each concentration and the compound IC50 values were calculated using Quattro Workflow V3.1.1 (Quattro Research GmbH, Munich, Germany). […] The fitting method used was a least-squares fit.

CDK12 wt/CycK = CDK12 wt/CycK (Homo sapiens (Human), UniProt Q9NYV4); settings: thiol containing (1.2 mM DTT), ATP 0.3 μM
Procedure: as §1, §2, §3, §4, §5, §6, §7, §8, §9, §10, §11

CDK7/CycH/MAT1 = CDK7/CycH/MAT1 (Homo sapiens (Human), UniProt P50613); settings: thiol containing (1.2 mM DTT), ATP 3.0 μM
Procedure: as §1, §2, §3, §4, §5, §6, §7, §8, §9, §10, §11

CDK7/CycH/MAT1, sequence (P50613 whole entry): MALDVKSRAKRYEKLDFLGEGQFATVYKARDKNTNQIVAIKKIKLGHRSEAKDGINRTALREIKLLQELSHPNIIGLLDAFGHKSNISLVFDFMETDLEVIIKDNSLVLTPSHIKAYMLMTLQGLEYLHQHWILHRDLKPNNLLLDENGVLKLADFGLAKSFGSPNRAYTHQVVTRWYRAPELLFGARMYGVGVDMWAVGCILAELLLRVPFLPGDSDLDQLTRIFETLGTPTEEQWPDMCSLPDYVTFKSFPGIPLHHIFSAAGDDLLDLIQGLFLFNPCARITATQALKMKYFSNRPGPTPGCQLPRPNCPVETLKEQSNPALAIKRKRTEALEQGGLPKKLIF
CDK7/CycH/MAT1, sequence (P51946 whole entry partner): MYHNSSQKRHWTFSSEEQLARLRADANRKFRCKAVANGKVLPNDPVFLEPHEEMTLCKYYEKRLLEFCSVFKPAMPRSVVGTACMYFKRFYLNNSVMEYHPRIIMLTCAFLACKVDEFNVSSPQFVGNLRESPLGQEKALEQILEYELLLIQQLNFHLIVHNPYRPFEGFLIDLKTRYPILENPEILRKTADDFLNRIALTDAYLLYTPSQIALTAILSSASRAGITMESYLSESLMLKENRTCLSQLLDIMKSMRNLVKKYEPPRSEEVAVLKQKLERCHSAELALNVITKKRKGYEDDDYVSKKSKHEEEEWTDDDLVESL
CDK7/CycH/MAT1, sequence (P51948 whole entry partner): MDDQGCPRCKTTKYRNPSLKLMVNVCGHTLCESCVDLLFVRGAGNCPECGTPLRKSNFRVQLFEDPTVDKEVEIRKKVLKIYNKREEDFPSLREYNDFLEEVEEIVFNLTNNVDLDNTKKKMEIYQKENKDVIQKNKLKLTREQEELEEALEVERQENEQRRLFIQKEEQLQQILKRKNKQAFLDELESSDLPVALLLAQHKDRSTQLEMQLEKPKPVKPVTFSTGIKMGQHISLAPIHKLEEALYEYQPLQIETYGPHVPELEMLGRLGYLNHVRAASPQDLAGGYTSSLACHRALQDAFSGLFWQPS
CDK12 wt/CycK, sequence (Q9NYV4 whole entry): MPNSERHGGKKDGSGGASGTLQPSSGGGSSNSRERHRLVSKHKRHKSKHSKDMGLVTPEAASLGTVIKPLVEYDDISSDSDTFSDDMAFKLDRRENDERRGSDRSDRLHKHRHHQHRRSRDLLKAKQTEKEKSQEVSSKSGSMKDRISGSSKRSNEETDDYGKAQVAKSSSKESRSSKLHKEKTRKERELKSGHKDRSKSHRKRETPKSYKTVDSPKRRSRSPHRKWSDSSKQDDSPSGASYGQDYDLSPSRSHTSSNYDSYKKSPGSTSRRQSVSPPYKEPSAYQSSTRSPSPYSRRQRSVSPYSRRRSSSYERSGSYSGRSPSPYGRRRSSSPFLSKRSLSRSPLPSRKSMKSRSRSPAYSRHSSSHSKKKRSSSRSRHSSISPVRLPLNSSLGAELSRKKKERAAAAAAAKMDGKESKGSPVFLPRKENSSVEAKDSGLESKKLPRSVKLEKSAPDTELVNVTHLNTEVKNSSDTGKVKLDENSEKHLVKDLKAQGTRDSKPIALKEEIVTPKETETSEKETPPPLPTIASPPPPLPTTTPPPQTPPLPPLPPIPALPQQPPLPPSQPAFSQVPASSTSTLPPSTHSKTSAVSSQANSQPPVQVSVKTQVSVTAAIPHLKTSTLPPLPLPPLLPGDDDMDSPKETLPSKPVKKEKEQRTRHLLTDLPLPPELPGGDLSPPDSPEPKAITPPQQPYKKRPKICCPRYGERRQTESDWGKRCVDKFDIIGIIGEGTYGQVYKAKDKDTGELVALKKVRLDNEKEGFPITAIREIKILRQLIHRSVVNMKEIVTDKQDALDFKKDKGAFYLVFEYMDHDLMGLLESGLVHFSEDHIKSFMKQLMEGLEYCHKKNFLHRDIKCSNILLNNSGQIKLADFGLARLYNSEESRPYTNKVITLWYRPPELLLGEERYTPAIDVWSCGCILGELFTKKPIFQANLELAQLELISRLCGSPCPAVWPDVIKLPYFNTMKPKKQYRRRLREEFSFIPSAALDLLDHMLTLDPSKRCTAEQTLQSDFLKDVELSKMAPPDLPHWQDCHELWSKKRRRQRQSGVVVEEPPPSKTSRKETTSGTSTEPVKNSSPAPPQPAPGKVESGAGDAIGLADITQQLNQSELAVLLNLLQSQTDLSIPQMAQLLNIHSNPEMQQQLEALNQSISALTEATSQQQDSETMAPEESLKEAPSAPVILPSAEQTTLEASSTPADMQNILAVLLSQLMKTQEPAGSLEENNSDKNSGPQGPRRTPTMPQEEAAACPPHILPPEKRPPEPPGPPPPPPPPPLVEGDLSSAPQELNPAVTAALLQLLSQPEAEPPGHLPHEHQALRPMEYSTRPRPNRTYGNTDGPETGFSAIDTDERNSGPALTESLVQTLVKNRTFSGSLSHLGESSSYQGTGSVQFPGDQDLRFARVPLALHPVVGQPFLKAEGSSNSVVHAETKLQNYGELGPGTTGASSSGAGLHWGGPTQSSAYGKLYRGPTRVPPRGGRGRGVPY
CDK12 wt/CycK, sequence (O75909 whole entry partner): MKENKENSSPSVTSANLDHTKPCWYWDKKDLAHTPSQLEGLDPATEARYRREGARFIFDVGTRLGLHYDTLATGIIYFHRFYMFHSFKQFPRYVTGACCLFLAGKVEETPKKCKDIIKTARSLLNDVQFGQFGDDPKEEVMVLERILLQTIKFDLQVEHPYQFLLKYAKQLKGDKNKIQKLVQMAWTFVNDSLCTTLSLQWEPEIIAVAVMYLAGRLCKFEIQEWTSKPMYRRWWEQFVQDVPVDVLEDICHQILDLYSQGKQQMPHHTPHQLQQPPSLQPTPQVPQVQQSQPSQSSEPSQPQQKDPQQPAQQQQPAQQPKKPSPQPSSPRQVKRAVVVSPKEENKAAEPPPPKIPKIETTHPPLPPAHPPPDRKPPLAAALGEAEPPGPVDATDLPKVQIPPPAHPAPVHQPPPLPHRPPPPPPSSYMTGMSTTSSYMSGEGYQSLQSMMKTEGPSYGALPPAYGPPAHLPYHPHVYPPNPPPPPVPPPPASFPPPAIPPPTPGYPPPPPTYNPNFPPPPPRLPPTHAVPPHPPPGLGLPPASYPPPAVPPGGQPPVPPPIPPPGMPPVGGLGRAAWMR

## CCC(=O)Nc1ccc(C(=O)N2CC[C@@H](Nc3ncc4ccc(OC)cc4n3)C2)cc1 [Example 51, (R)—N-(4-(3-((7-methoxyquinazolin-2-yl)amino)pyrrolidine-1-carbonyl)phenyl)propionamide]
CDK2/CycA2
  IC50: 100 to 1000 nM
CDK12 wt/CycK
  IC50: 100 to 1000 nM
CDK7/CycH/MAT1
  IC50: 100 to 1000 nM

## CCC(=O)Nc1ccc(C(=O)N2CC[C@@H](Nc3ncc4ccc(S(C)(=O)=O)cc4n3)C2)cc1 [Example 52, (R)—N-(4-(3-((7-(methylsulfonyl)quinazolin-2-yl)amino)pyrrolidine-1-carbonyl)phenyl)propionamide]
CDK2/CycA2
  IC50: 100 to 1000 nM
CDK12 wt/CycK
  IC50: 100 to 1000 nM
CDK7/CycH/MAT1
  IC50: 1000 to 10000 nM

## CCC(=O)Nc1ccc(C(=O)N2CC[C@@H](Nc3ncc4ccc(Cl)cc4n3)C2)cc1 [Example 53, (R)—N-(4-(3-((7-chloroquinazolin-2-yl)amino)pyrrolidine-1-carbonyl)phenyl)propionamide]
CDK2/CycA2
  IC50: 100 to 1000 nM
CDK12 wt/CycK
  IC50: 100 to 1000 nM
CDK7/CycH/MAT1
  IC50: 1000 to 10000 nM

## CCC(=O)Nc1ccc(C(=O)N2CC[C@@H](Nc3ncc4ccc(F)cc4n3)C2)cc1 [Example 54, (R)—N-(4-(3-((7-fluoroquinazolin-2-yl)amino)pyrrolidine-1-carbonyl)phenyl)propionamide]
CDK2/CycA2
  IC50: 1000 to 10000 nM
CDK12 wt/CycK
  IC50: 100 to 1000 nM
CDK7/CycH/MAT1
  IC50: 1000 to 10000 nM

## CCC(=O)Nc1ccc(C(=O)N2CC[C@@H](Nc3ncc4ccc(C#N)cc4n3)C2)cc1 [Example 55, (R)—N-(4-(3-((7-cyanoquinazolin-2-yl)amino)pyrrolidine-1-carbonyl)phenyl)propionamide]
CDK2/CycA2
  IC50: 100 to 1000 nM
CDK12 wt/CycK
  IC50: 100 to 1000 nM
CDK7/CycH/MAT1
  IC50: 1000 to 10000 nM

## CCC(=O)Nc1ccc(C(=O)N2CC[C@@H](Nc3ncc4ccc(C(=O)O)cc4n3)C2)cc1 [Example 56, (R)-2-((1-(4-propionamidobenzoyl)pyrrolidin-3-yl)amino)quinazoline-7-carboxylic Acid]
CDK2/CycA2
  IC50: ≤ 100 nM
CDK12 wt/CycK
  IC50: ≤ 100 nM
CDK7/CycH/MAT1
  IC50: 100 to 1000 nM

## CCC(=O)Nc1ccc(C(=O)N2CC[C@@H](Nc3ncc4ccc(C(N)=O)cc4n3)C2)cc1 [Example 57, (R)-2-((1-(4-propionamidobenzoyl)pyrrolidin-3-yl)amino)quinazoline-7-carboxamide]
CDK2/CycA2
  IC50: ≤ 100 nM
CDK12 wt/CycK
  IC50: ≤ 100 nM
CDK7/CycH/MAT1
  IC50: ≤ 100 nM

## CCC(=O)Nc1ccc(C(=O)N2CC[C@@H](Nc3ncc4ccc(C(=O)N(C)C)cc4n3)C2)cc1 [Example 59, (R)—N,N-dimethyl-2-((1-(4-propionamidobenzoyl)pyrrolidin-3-yl)amino)quinazoline-7-carboxamide]
CDK2/CycA2
  IC50: ≤ 100 nM
CDK12 wt/CycK
  IC50: ≤ 100 nM
CDK7/CycH/MAT1
  IC50: 100 to 1000 nM

## CCC(=O)Nc1ccc(C(=O)N2CC[C@@H](Nc3ncc4ccc(=O)[nH]c4n3)C2)cc1 [Example 60, (R)—N-(4-(3-((7-oxo-7,8-dihydropyrido[2,3-d]pyrimidin-2-yl)amino)pyrrolidine-1-carbonyl)phenyl)propionamide]
CDK2/CycA2
  IC50: 1000 to 10000 nM
CDK12 wt/CycK
  IC50: ≤ 100 nM
CDK7/CycH/MAT1
  IC50: 1000 to 10000 nM

## C=CC(=O)Nc1ccc(C(=O)N2C[C@H](Nc3ncc4ccccc4n3)[C@@H](F)C2)cc1 [Example 63, N-(4-((3S,4S)-3-fluoro-4-(quinazolin-2-ylamino)pyrrolidine-1-carbonyl)phenyl)acrylamide]
CDK2/CycA2
  IC50: 10000 to 30000 nM
CDK12 wt/CycK
  IC50: 100 to 1000 nM
CDK7/CycH/MAT1
  IC50: 1000 to 10000 nM

## C=CC(=O)Nc1ccc(C(=O)N2CC(Nc3ncc4ccccc4n3)C2)cc1 [Example 64, N-(4-(3-(quinazolin-2-ylamino)azetidine-1-carbonyl)phenyl)acrylamide]
CDK2/CycA2
  IC50: 1000 to 10000 nM
CDK12 wt/CycK
  IC50: 1000 to 10000 nM
CDK7/CycH/MAT1
  IC50: 10000 to 30000 nM

## CN(C)C/C=C/C(=O)Nc1ccc(C(=O)N2CC[C@@H](Nc3ncc4ccccc4n3)C2)cc1 [Example 65, (R,E)-4-(dimethylamino)-N-(4-(3-(quinazolin-2-ylamino)pyrrolidine-1-carbonyl)phenyl)but-2-enamide]
CDK2/CycA2
  IC50: 100 to 1000 nM
CDK12 wt/CycK
  IC50: 100 to 1000 nM
CDK7/CycH/MAT1
  IC50: 100 to 1000 nM

## CN(C)C/C=C/C(=O)Nc1ccc(C(=O)N2CCC[C@@H](Nc3ncc4ccccc4n3)C2)cc1 [Example 66, (R,E)-4-(dimethylamino)-N-(4-(3-(quinazolin-2-ylamino)piperidine-1-carbonyl)phenyl)but-2-enamide]
CDK2/CycA2
  IC50: 30000 to 100000 nM
CDK12 wt/CycK
  IC50: 1000 to 10000 nM
CDK7/CycH/MAT1
  IC50: 30000 to 100000 nM

## C=CC(=O)Nc1c(C)cc(C(=O)N2CC[C@@H](Nc3ncc4ccccc4n3)C2)cc1F [Example 75, (R)—N-(2-fluoro-6-methyl-4-(3-(quinazolin-2-ylamino)pyrrolidine-1-carbonyl)phenyl)acrylamide]
CDK2/CycA2
  IC50: 10000 to 30000 nM
CDK12 wt/CycK
  IC50: 1000 to 10000 nM
CDK7/CycH/MAT1
  IC50: 10000 to 30000 nM

## CC#CC(=O)Nc1ccc(C(=O)N2CC[C@@H](Nc3ncc4ccccc4n3)C2)cc1 [Example 77, (R)—N-(4-(3-(quinazolin-2-ylamino)pyrrolidine-1-carbonyl)phenyl)but-2-ynamide]
CDK2/CycA2
  IC50: 100 to 1000 nM
CDK12 wt/CycK
  IC50: ≤ 100 nM
CDK7/CycH/MAT1
  IC50: 100 to 1000 nM

## C=CC(=O)Nc1ccc(C(=O)N2CC[C@@H](Nc3ncc4ccccc4n3)C2)c(C)c1 [Example 78]
CDK2/CycA2
  IC50: 1000 to 10000 nM
CDK12 wt/CycK
  IC50: 100 to 1000 nM
CDK7/CycH/MAT1
  IC50: 1000 to 10000 nM

## C=CC(=O)N1CCOc2cc(C(=O)N3CC[C@@H](Nc4ncc5ccccc5n4)C3)ccc21 [Example 80, (R)-1-(7-(3-(quinazolin-2-ylamino)pyrrolidine-1-carbonyl)-2H-benzo[b][1,4]oxazin-4(3H)-yl)prop-2-en-1-one]
CDK2/CycA2
  IC50: 100 to 1000 nM
CDK12 wt/CycK
  IC50: ≤ 100 nM
CDK7/CycH/MAT1
  IC50: 100 to 1000 nM

## COc1cc(C(=O)N2CC[C@@H](Nc3ncc4ccccc4n3)C2)ccc1NC(=O)/C=C/CN(C)C [Example 81, (R,E)-4-(dimethylamino)-N-(2-methoxy-4-(3-(quinazolin-2-ylamino)pyrrolidine-1-carbonyl)phenyl)but-2-enamide]
CDK2/CycA2
  IC50: 1000 to 10000 nM
CDK12 wt/CycK
  IC50: 100 to 1000 nM
CDK7/CycH/MAT1
  IC50: 100 to 1000 nM

## CN(C)C/C=C/C(=O)Nc1ccc(C(=O)N2CC[C@@H](Nc3ncc4ccccc4n3)C2)cc1Cl [Example 82, (R,E)-N-(2-chloro-4-(3-(quinazolin-2-ylamino)pyrrolidine-1-carbonyl)phenyl)-4-(dimethylamino)but-2-enamide]
CDK2/CycA2
  IC50: 1000 to 10000 nM
CDK12 wt/CycK
  IC50: 100 to 1000 nM
CDK7/CycH/MAT1
  IC50: 100 to 1000 nM

## CN(C)C/C=C/C(=O)N1CCOc2cc(C(=O)N3CC[C@@H](Nc4ncc5ccccc5n4)C3)ccc21 [Example 84, (R,E)-4-(dimethylamino)-1-(7-(3-(quinazolin-2-ylamino)pyrrolidine-1-carbonyl)-2H-benzo[b][1,4]oxazin-4(3H)-yl)but-2-en-1-one]
CDK2/CycA2
  IC50: 1000 to 10000 nM
CDK12 wt/CycK
  IC50: 100 to 1000 nM
CDK7/CycH/MAT1
  IC50: 100 to 1000 nM

## C=CC(=O)Nc1cccc(C(=O)N2CC[C@@H](Nc3ncc4ccccc4n3)C2)c1 [Example 87, (R)—N-(3-(3-(quinazolin-2-ylamino)pyrrolidine-1-carbonyl)phenyl)acrylamide]
CDK2/CycA2
  IC50: 100 to 1000 nM
CDK12 wt/CycK
  IC50: 100 to 1000 nM
CDK7/CycH/MAT1
  IC50: 100 to 1000 nM

## CN(C)C/C=C/C(=O)N1CCCc2cc(C(=O)N3CC[C@@H](Nc4ncc5ccccc5n4)C3)ccc21 [Example 89, (R,E)-4-(dimethylamino)-1-(6-(3-(quinazolin-2-ylamino)pyrrolidine-1-carbonyl)-3,4-dihydroquinolin-1(2H)-yl)but-2-en-1-one]
CDK2/CycA2
  IC50: 1000 to 10000 nM
CDK12 wt/CycK
  IC50: 100 to 1000 nM
CDK7/CycH/MAT1
  IC50: 100 to 1000 nM

## C=CC(=O)Nc1ccc(C(=O)N2CC[C@@H](Nc3ncc4cccc(F)c4n3)C2)cc1 [Example 90, (R)—N-(4-(3-((8-fluoroquinazolin-2-yl)amino)pyrrolidine-1-carbonyl)phenyl)acrylamide]
CDK2/CycA2
  IC50: 1000 to 10000 nM
CDK12 wt/CycK
  IC50: 100 to 1000 nM
CDK7/CycH/MAT1
  IC50: 1000 to 10000 nM
